12 molecules from US9889146B2, “Benzoxaborole compounds and uses thereof” (priority 2012, dated 2018) can be followed below.

Converted amounts (≈) assume the structure as drawn. Read-outs that look alike come from different tables or passages of the source. Some results are limits rather than exact numbers.

Common to all, as to assay type: cell-based
In experiment [1] the test system is P. aeruginosa. The experiment is described as follows: In vitro activity against P. aeruginosa clinical isolates. To be noted: P. aeruginosa, 2,008 clinical isolates; GSK2251052 based on potential susceptible breakpoint of ≦4 μg/mL. The method, then:
GSK2251052 was tested for activity against P. aeruginosa, and its activity was compared to other antibiotics of known activity. The results are shown below in Tables 2a and 2b. Of 2,008 clinical isolates tested (from 2009-2010 subjects, of which 40% were from North America) greater than 90% were susceptible to GSK2251052 based on a potential susceptible breakpoint of ≦4 μg/mL.

Experiment [2] concerns Escherichia coli 1161435 parent and mutant strains B4, B26 and B35. The experiment is described as follows: Sensitivity to leucine analogs in MH and M9 media.
Experiment [3] has as its system E. coli ATCC 25922 wild type and mutants. Description: MIC, wild type and GSK2251052 resistant mutants. To be noted: Escherichia coli. On the procedure:
(§1) Spontaneous Resistance Frequency was determined in vitro for GSK2251052 and the resistance mutants in E. coli ATCC 25922, K. pneumoniae ATCC 13883, and P. aeruginosa ATCC 27853 strains were characterized. GSK2251052 was prepared as described in U.S. Pat. No. 7,816,344 (the entire contents of which are hereby incorporated by reference herein). LB broth, Mueller Hinton II broth (adjusted), and Difco noble agar were obtained from Becton Dickinson (Cockeysville, Md., USA). M9 minimal broth containing 1×M9 salt, 0.5 μg/ML thiamine, 1 mM MgSO4, 0.1 mM CaCl2, 2% glucose, was obtained from Teknova (Hollister, Calif., USA). Antibacterial agents ciprofloxacin, ceftazidime, chloramphenicol, gentamycin, kanamycin, polymixin B, tobramycin and trimethoprim, and amino acids were obtained from Sigma Chemicals (St. Louis, Mo., USA). Strains were obtained from ATCC (Manassas, Va., USA).
(§2) Susceptibility tests were performed following the recommendations for aerobic bacteria (M7-A7) from the Clinical and Laboratories Standards Institute (CLSI).
(§3) Laboratory generated mutants resistant to GSK2251052 contain mutations in the editing domain of LeuRS. Six to ten GSK2251052 resistant colonies of E. coli ATCC 25922, K. pneumoniae ATCC 13883 and P. aeruginosa ATCC 27853 were selected for further analysis and their MICs to GSK2251052 were determined (Table 4-7).

Experiment [4] concerns K. pneumoniae ATCC 13883 wild type and mutants. The experiment is described as follows: MIC, wild type and GSK2251052 resistant mutants. To be noted: Klebsiella pneumoniae. The method, then: as §1, §2, §3
Experiment [5] concerns P. aeruginosa ATCC 27853 wild type and mutants. The experiment is described as follows: MIC, wild type and GSK2251052 resistant mutants. To be noted: Pseudomonas aeruginosa. The method, then: as §1, §2, §3

Consider `NCC[C@H](O)C(=O)N[C@@H]1C[C@H](N)[C@@H](O[C@H]2O[C@H](CN)[C@@H](O)[C@H](O)[C@H]2O)[C@H](O)[C@H]1O[C@H]1O[C@H](CO)[C@@H](O)[C@H](N)[C@H]1O` [Amikacin], for which the “% susceptible” value in experiment [1] stood at 90.2%.
`C=CCC(N)C(=O)O` (racemic) [DL-2-Allylglycine]: the MIC (sensitivity to leucine analogs) was 16 µg/mL in experiment [2] (1161435 Parent, M9); greater than 128 µg/mL in experiment [2] (1161435 Parent, MH); 16 µg/mL in experiment [2] (B4 (P339L), M9); greater than 128 µg/mL in experiment [2] (B4 (P339L), MH); 16 µg/mL in experiment [2] (B26 (R334H), M9); greater than 128 µg/mL in experiment [2] (B26 (R334H), MH). Besides, the MIC (sensitivity to leucine analogs) in experiment [2] (B35 (D251N), M9) was 32 µg/mL; in experiment [2] (B35 (D251N), MH) it was greater than 128 µg/mL.
As to `NC[C@H]1O[C@H](O[C@H]2[C@H](O)[C@@H](O[C@H]3O[C@H](CO)[C@@H](O)[C@H](N)[C@H]3O)[C@H](N)C[C@@H]2N)[C@H](O)[C@@H](O)[C@@H]1O` [Kanamycin], the MIC in experiment [3] (ATCC25922, E wt, read-out: MICs) worked out at 4 µg/mL (≈ 8.26 µM); in experiment [3] (ATCC25922, read-out: MICs, mutant E 101), 4 µg/mL (≈ 8.26 µM); in experiment [3] (ATCC25922, read-out: MICs, mutant E 102), 4 µg/mL (≈ 8.26 µM); in experiment [3] (ATCC25922, read-out: MICs, mutant E 107) it was 8 µg/mL (≈ 16.5 µM); in experiment [4] (ATCC13883, K wt., read-out: MICs), 2 µg/mL (≈ 4.13 µM); in experiment [4] (ATCC13883, read-out: MICs, mutant K 104), 2 µg/mL (≈ 4.13 µM). The MIC was 2 µg/mL (≈ 4.13 µM) in experiment [4] (ATCC13883, read-out: MICs, mutant K 105); 2 µg/mL (≈ 4.13 µM) in experiment [4] (ATCC13883, read-out: MICs, mutant K 107); 2 µg/mL (≈ 4.13 µM) in experiment [4] (ATCC13883, read-out: MICs, mutant K 108); 1 µg/mL (≈ 2.06 µM) in experiment [4] (ATCC13883, read-out: MICs, mutant K 110); greater than 64 µg/mL in experiment [5] (ATCC27853, P wt., read-out: MICs); greater than 64 µg/mL in experiment [5] (ATCC27853, read-out: MICs, mutant P 101). Besides, the MIC in experiment [5] (ATCC27853, read-out: MICs, mutant P106) was greater than 64 µg/mL; in experiment [5] (ATCC27853, read-out: MICs, mutant P108), greater than 64 µg/mL.
Turning to `CC[C@H](C)[C@H](N)C(=O)O` [L-Isoleucine], the MIC (sensitivity to leucine analogs) in experiment [2] (1161435 Parent, M9) is greater than 128 µg/mL; in experiment [2] (1161435 Parent, MH), greater than 128 µg/mL; in experiment [2] (B4 (P339L), M9), greater than 128 µg/mL; in experiment [2] (B4 (P339L), MH) it was greater than 128 µg/mL; in experiment [2] (B26 (R334H), M9), greater than 128 µg/mL; in experiment [2] (B26 (R334H), MH), greater than 128 µg/mL. In addition, the MIC (sensitivity to leucine analogs) was greater than 128 µg/mL in experiment [2] (B35 (D251N), M9) and greater than 128 µg/mL in experiment [2] (B35 (D251N), MH).
Turning to `CC(C)[C@H](N)C(=O)O` [L-Valine], the MIC (sensitivity to leucine analogs) was greater than 128 µg/mL in experiment [2] (1161435 Parent, M9); greater than 128 µg/mL in experiment [2] (1161435 Parent, MH); greater than 128 µg/mL in experiment [2] (B4 (P339L), M9); greater than 128 µg/mL in experiment [2] (B4 (P339L), MH); greater than 128 µg/mL in experiment [2] (B26 (R334H), M9); greater than 128 µg/mL in experiment [2] (B26 (R334H), MH). The MIC (sensitivity to leucine analogs) in experiment [2] (B35 (D251N), M9) is greater than 128 µg/mL; in experiment [2] (B35 (D251N), MH), greater than 128 µg/mL.
Consider Colistin, for which the “% susceptible” value in experiment [1] worked out at 62.3%.
With `NC(CC1CCCC1)C(=O)O` (racemic) [3-Cyclopentyl-DL-Alanine], the MIC (sensitivity to leucine analogs) in experiment [2] (1161435 Parent, M9) is greater than 128 µg/mL; in experiment [2] (1161435 Parent, MH), greater than 128 µg/mL; in experiment [2] (B4 (P339L), M9) it was greater than 128 µg/mL; in experiment [2] (B4 (P339L), MH), greater than 128 µg/mL; in experiment [2] (B26 (R334H), M9), greater than 128 µg/mL; in experiment [2] (B26 (R334H), MH) it was greater than 128 µg/mL. Besides, the MIC (sensitivity to leucine analogs) was greater than 128 µg/mL in experiment [2] (B35 (D251N), M9) and greater than 128 µg/mL in experiment [2] (B35 (D251N), MH).
Take `CSCC[C@H](N)C(=O)O` [L-Methionine]: the MIC (sensitivity to leucine analogs) was greater than 128 µg/mL in experiment [2] (1161435 Parent, M9); greater than 128 µg/mL in experiment [2] (1161435 Parent, MH); greater than 128 µg/mL in experiment [2] (B4 (P339L), M9); greater than 128 µg/mL in experiment [2] (B4 (P339L), MH); greater than 128 µg/mL in experiment [2] (B26 (R334H), M9); greater than 128 µg/mL in experiment [2] (B26 (R334H), MH). Besides, the MIC (sensitivity to leucine analogs) in experiment [2] (B35 (D251N), M9) is greater than 128 µg/mL; in experiment [2] (B35 (D251N), MH) it was greater than 128 µg/mL.
For `CC(CC(N)C(=O)O)C(F)(F)F` (racemic) [5,5,5-Trifluoro-DL-Leucine], the MIC (sensitivity to leucine analogs) in experiment [2] (1161435 Parent, M9) was 128 µg/mL; in experiment [2] (1161435 Parent, MH) it was greater than 128 µg/mL; in experiment [2] (B4 (P339L), M9) it was 128 µg/mL; in experiment [2] (B4 (P339L), MH) it was greater than 128 µg/mL; in experiment [2] (B26 (R334H), M9) it was 64 µg/mL; in experiment [2] (B26 (R334H), MH), greater than 128 µg/mL. Also, the MIC (sensitivity to leucine analogs) in experiment [2] (B35 (D251N), M9) was 64 µg/mL; in experiment [2] (B35 (D251N), MH), greater than 128 µg/mL.
On to `CN(C)CC(N)C(=O)O.Cl.Cl` (racemic) [4-Aza-DL-Leucine dihydrochloride], for which the MIC (sensitivity to leucine analogs) is 64 µg/mL in experiment [2] (1161435 Parent, M9); greater than 128 µg/mL in experiment [2] (1161435 Parent, MH); 64 µg/mL in experiment [2] (B4 (P339L), M9); greater than 128 µg/mL in experiment [2] (B4 (P339L), MH); 64 µg/mL in experiment [2] (B26 (R334H), M9); greater than 128 µg/mL in experiment [2] (B26 (R334H), MH). The MIC (sensitivity to leucine analogs) is 32 µg/mL in experiment [2] (B35 (D251N), M9) and greater than 128 µg/mL in experiment [2] (B35 (D251N), MH).
As to `CC(=O)CC(N)C(=O)O` (racemic) [DL-oxonorvaline], the MIC (sensitivity to leucine analogs) in experiment [2] (1161435 Parent, M9) is 128 µg/mL; in experiment [2] (1161435 Parent, MH), greater than 256 µg/mL; in experiment [2] (B4 (P339L), M9) it was 64 µg/mL; in experiment [2] (B4 (P339L), MH), greater than 256 µg/mL; in experiment [2] (B26 (R334H), M9), 64 µg/mL; in experiment [2] (B26 (R334H), MH), greater than 256 µg/mL. Besides, the MIC (sensitivity to leucine analogs) was 128 µg/mL in experiment [2] (B35 (D251N), M9) and greater than 256 µg/mL in experiment [2] (B35 (D251N), MH).
In the case of `C[C@@H](O)[C@H](N)C(=O)O` [L-Threonine], the MIC (sensitivity to leucine analogs) was greater than 128 µg/mL in experiment [2] (1161435 Parent, M9); greater than 128 µg/mL in experiment [2] (1161435 Parent, MH); greater than 128 µg/mL in experiment [2] (B4 (P339L), M9); greater than 128 µg/mL in experiment [2] (B4 (P339L), MH); greater than 128 µg/mL in experiment [2] (B26 (R334H), M9); greater than 128 µg/mL in experiment [2] (B26 (R334H), MH). Further, the MIC (sensitivity to leucine analogs) is greater than 128 µg/mL in experiment [2] (B35 (D251N), M9) and greater than 128 µg/mL in experiment [2] (B35 (D251N), MH).
